Assay results as given in patent US12257247B2 (Monte Rosa Therapeutics AG, priority 2023, dated 2025).
Like-named read-outs stand apart in the source and are kept apart here.

Target: T1, VAV1 (Homo sapiens, UniProt P15498+Q96SW2)
T1 construct: A heterozygous VAV1 C-terminal HiBiT knock-in pool was generated at Monte Rosa Therapeutics from a clonal Jurkat cell; endogenous in cells; host or cells: Jurkat clone stably expressing LgBiT, homozygous GSPT1-G575N; heterozygous VAV1-HiBiT knock-in pool
Assay: VAV1 degradation activity, VAV1-HiBiT knock-in Jurkat luminescence assay (Example A, Table 1)
Assay type: cell-based
Details: VAV1-HiBiT knock-in Jurkat cells; for Dmax: Jurkat
Summary of the method: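 Jurkat cells carrying VAV1-HiBiT knock-in, plated in RPMI/10% FBS with Endurazine live-cell substrate and pre-incubated ~16 h at 37° C. Compound dosed from 10 μM stock; luminescence read 6 and 24 h later. Response normalised to plate negative/positive controls, EC50 from 3-parameter logistic fit (hillslope 1).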

[1] = luminescence read at 6 and 24 hours, read-out: VAV1 Dmax %
[2] = luminescence read at 6 and 24 hours, read-out: VAV1 Dmax %, class
[3] = luminescence read at 6 and 24 hours, read-out: VAV1 DC50
[4] = luminescence read at 6 and 24 hours, read-out: VAV1 DC50 (nM), class
[5] = luminescence read at 6 and 24 hours after compound addition, read-out: VAV1 Dmax %
[6] = luminescence read at 6 and 24 hours after compound addition, read-out: VAV1 Dmax %, class
[7] = luminescence read at 6 and 24 hours after compound addition, read-out: VAV1 DC50
[8] = luminescence read at 6 and 24 hours after compound addition, read-out: VAV1 DC50 (nM), class

SMILES	Dmax [1]	Dmax [2]	DC50 [3]	DC50 [4]	Dmax [5]	Dmax [6]	DC50 [7]	DC50 [8]
COC1(CN2C(=O)Cc3cc(-c4cccc(C5CCC(=O)NC5=O)c4Cl)ccc32)CC1 (stereo not drawn) [Compound 391, 3-(2-chloro-3-(1-((1-methoxycyclopropyl)methyl)-2-oxoindolin-5-yl)phenyl)piperidine-2,6-dione]	54%	< 60%	5110 nM	> 1000 nM				
N#Cc1ccc(-c2cccc(C3CCC(=O)NC3=O)c2Cl)cc1 (stereo not drawn) [Compound 142]	69.9%	60 to 90%	705 nM	100 to 1000 nM				
O=C1CCC(c2cccc(-c3ccc(N4CCC4)cc3)c2Cl)C(=O)N1 (stereo not drawn) [Compound 195, 3-(4′-(azetidin-1-yl)-2-chloro-[1,1′-biphenyl]-3-yl)piperidine-2,6-dione]	79.4%	60 to 90%	552 nM	100 to 1000 nM				
O=C1CCC(c2cccc(-c3ccc(Cc4cccnc4)cc3)c2Cl)C(=O)N1 (stereo not drawn) [Compound 374, 3-(2-chloro-4′-(pyridin-3-ylmethyl)-[1,1′-biphenyl]-3-yl)piperidine-2,6-dione]	97.4%	> 90%	10.2 nM	≤ 100 nM				
O=C1CCC(c2cccc(-c3ccc(C4COC(=O)N4)c(F)c3)c2Cl)C(=O)N1 (stereo not drawn) [Compound 107]	27%	< 60%	≥ 10000 nM	> 1000 nM				
O=C1CCC(c2cccc(-c3ccc4c(c3)CCN4)c2F)C(=O)N1 (stereo not drawn) [Compound 491, 3-(2-fluoro-3-(indolin-5-yl)phenyl)piperidine-2,6-dione]					88.5%	60 to 90%	15.7 nM	≤ 100 nM
O=C1CCC(c2cccc(-c3ccc(Oc4ncccn4)cc3)c2Cl)C(=O)N1 (stereo not drawn) [Compound 360, 3-(2-chloro-4′-(pyrimidin-2-yloxy)-[1,1′-biphenyl]-3-yl)piperidine-2,6-dione]	96.5%	> 90%	6.85 nM	≤ 100 nM				
O=C1CCC(c2cccc(-c3ccc4c(cnn4Cc4ncccn4)c3)c2Cl)C(=O)N1 (stereo not drawn) [Compound 396, 3-(2-chloro-3-(1-(pyrimidin-2-ylmethyl)-1H-indazol-5-yl)phenyl)piperidine-2,6-dione]	96.9%	> 90%	4.98 nM	≤ 100 nM				
Cn1cnc(CN2C(=O)Cc3cc(-c4cccc(C5CCC(=O)NC5=O)c4Cl)ccc32)c1 (stereo not drawn) [Compound 504, 3-(2-chloro-3-(1-((1-methyl-1H-imidazol-4-yl)methyl)-2-oxoindolin-5-yl)phenyl)piperidine-2,6-dione]					96.7%	> 90%	5.5 nM	≤ 100 nM
COC1CCCC(=O)N1Cc1ccc(-c2cccc(C3CCC(=O)NC3=O)c2Cl)cc1 (stereo not drawn) [Compound 271]	83.8%	60 to 90%	50.9 nM	≤ 100 nM				
O=C1CCC(c2cccc(-c3ccc(N4C(=O)CCC45COC5)cc3)c2Cl)C(=O)N1 (stereo not drawn) [Compound 355, 3-(2-chloro-4′-(6-oxo-2-oxa-5-azaspiro[3.4]octan-5-yl)-[1,1′-biphenyl]-3-yl)piperidine-2,6-dione]	91.8%	> 90%	15.9 nM	≤ 100 nM				
O=C1CCC(c2cccc(-c3ccc(CC4COC4)cc3)c2Cl)C(=O)N1 (stereo not drawn) [Compound 233, 3-(2-chloro-4′-(oxetan-3-ylmethyl)-[1,1′-biphenyl]-3-yl)piperidine-2,6-dione]	92%	> 90%	16.1 nM	≤ 100 nM				
O=C1CC[C@H](c2cccc(-c3ccc(-n4ccccc4=O)cc3)c2Cl)C(=O)N1 [Compound 210, (R)-3-(2-chloro-4′-(2-oxopyridin-1(2H)-yl)-[1,1′-biphenyl]-3-yl)piperidine-2,6-dione]	96.9%	> 90%	40.9 nM	≤ 100 nM				
Cn1cnc(Cc2ccc(-c3cccc(C4CCC(=O)NC4=O)c3Cl)cc2)c1 (stereo not drawn) [Compound 408, 3-(2-chloro-4′-((1-methyl-1H-imidazol-4-yl)methyl)-[1,1′-biphenyl]-3-yl)piperidine-2,6-dione]	96%	> 90%	30.8 nM	≤ 100 nM				
CN1CC(=O)N(Cc2ccc(-c3cccc(C4CCC(=O)NC4=O)c3Cl)cc2)CC1(C)C (stereo not drawn) [Compound 257]	94.2%	> 90%	9.66 nM	≤ 100 nM				
